pIC50: −log10 of the molar value. Several values for one entry are separate records, joined by “and”; a condition that tells them apart may be missing. Equal entries are not always repeated.
Tests used:
[1] = tested on: PC-3; experiment: Antiproliferative activity against human PC3 cells assessed as inhibition of cell growth after 72 hrs by MTT assay; format: functional, cell-based; conditions: PC-3, 72 h
[2] = Ulcerogenic activity in fasted albino mouse assessed as ulcer index in gastric mucosa at 10 mg/kg, po for 3 days (reference value: 0); format: toxicity, organism-based; conditions: in vivo, 72 h, time 3 day
[3] = tested on: Rattus norvegicus; experiment: Anti-inflammatory activity in Wistar rat assessed as inhibition of carrageenan-induced paw edema at 10 mg/kg, ip pretreated for 1 hr followed by carrageenan challenge and measured after 24 hr relative to control (reference value: 0.00 +/-0.3 %); format: functional; conditions: time 25 hrs
[4] = tested on: Peritoneal macrophage; experiment: Antiinflammatory activity in […] mouse Peritoneal macrophages assessed as reduction in LPS-induced NO production by measuring reduction in stimulation index at 10 uM preincubated for 1 hr followed by LPS stimulation measured after 24 hrs by Griess method (reference value: 27.31 +/- 2.56 uM); format: functional; conditions: time 25 hrs
[5] = tested on: Rattus norvegicus; experiment: Antiinflammatory activity in Wistar rat model of carrageenan-induced paw edema assessed as reduction in thickness of paw edema at 10 mg/kg, ip pretreated for 1 hr followed by carrageenan challenge and measured after 4 hrs (reference value: 1.40 +/-0.10 mm); format: functional; conditions: time 5 hrs
[6] = Toxicity in albino mouse assessed as induction of toxic symptoms at 50 to 100 mg/kg, ip measured after 24 hrs; format: organism-based; conditions: in vivo, dose 50-100 mg/kg
[7] = tested on: Mus musculus; experiment: Analgesic activity in albino mouse assessed as protection at 10 mg/kg, ip measured after 120 mins by hot plate test (reference value: 0 %); format: functional; conditions: 2 h
[8] = tested on: MCF7; experiment: Antiproliferative activity against human MCF7 cells assessed as inhibition of cell growth after 72 hrs by MTT assay; format: functional, cell-based; conditions: MCF7, 72 h
[9] = Ulcerogenic activity in fasted albino mouse assessed as average severity of ulcers in gastric mucosa at 10 mg/kg, po for 3 days (reference value: 0); format: toxicity, organism-based; conditions: in vivo, 72 h, time 3 day
[10] = tested on: Rattus norvegicus; experiment: Anti-inflammatory activity in Wistar rat assessed as inhibition of carrageenan-induced paw edema at 10 mg/kg, ip pretreated for 1 hr followed by carrageenan challenge and measured after 1 hr relative to control (reference value: 0.00 +/-0.02 %); format: functional; conditions: time 2 hrs
[11] = tested on: Streptococcus pyogenes; experiment: Antibacterial activity against Streptococcus pyogenes ATCC 19615 incubated for 18 hrs by agar dilution method; format: functional
[12] = tested on: Mus musculus; experiment: Analgesic activity in albino mouse assessed protection against acetic acid-induced abdominal writhing at 10 mg/kg, ip pretreated for 1 hr followed by acetic acid challenge and measured starting 5 mins post acetic acid challenge for 10 mins relative to indomethacin; format: functional; conditions: time 75 min, 1.25 h
[13] = tested on: Candida albicans; experiment: Antifungal activity against Candida albicans incubated for 18 to 24 hrs by CLSI method; format: functional; conditions: time 18-24 hrs
[14] = tested on: Mus musculus; experiment: Analgesic activity in albino mouse assessed as forepaw licking/jumping latency time at 10 mg/kg, ip measured after 30 mins by hot plate test (reference value: 5.02 +/- 0.09 sec); format: functional; conditions: 0.5 h
[15] = tested on: Rattus norvegicus; experiment: Antiinflammatory activity in Wistar rat model of carrageenan-induced paw edema assessed as reduction in thickness of paw edema at 10 mg/kg, ip pretreated for 1 hr followed by carrageenan challenge and measured after 24 hrs (reference value: 0.83 +/-0.08 mm); format: functional; conditions: time 25 hrs
[16] = tested on: Rattus norvegicus; experiment: Anti-inflammatory activity in Wistar rat assessed as inhibition of carrageenan-induced paw edema at 10 mg/kg, ip pretreated for 1 hr followed by carrageenan challenge and measured after 4 hr relative to control (reference value: 0.00 +/-0.4 %); format: functional; conditions: time 5 hrs
[17] = tested on: Mus musculus; experiment: Analgesic activity in albino mouse assessed as forepaw licking/jumping latency time at 10 mg/kg, ip measured after 90 mins by hot plate test (reference value: 2.72 +/- 0.01 sec); format: functional; conditions: 1.5 h
[18] = tested on: Mus musculus; experiment: Analgesic activity in albino mouse assessed as protection at 10 mg/kg, ip measured after 120 mins by hot plate test relative to indomethacin; format: functional; conditions: 2 h
[19] = tested on: Splenocyte; experiment: Immunomodulatory activity in Swiss albino mouse splenocytes assessed as cell viability at 10 uM by measuring inhibition of stimulation index incubated for 72 hrs in presence of mitogenic stimulus phytohaemagglutinin by MTT assay relative to indomethacin; format: functional; conditions: read-out: Activity
[20] = tested on: Rattus norvegicus; experiment: Anti-inflammatory activity in Wistar rat assessed as inhibition of carrageenan-induced paw edema at 10 mg/kg, ip pretreated for 1 hr followed by carrageenan challenge and measured after 2 hr relative to control (reference value: 0.00 +/-0.03 %); format: functional; conditions: time 3 hrs
[21] = tested on: Mus musculus; experiment: Analgesic activity in albino mouse assessed as forepaw licking/jumping latency time at 10 mg/kg, ip measured after 60 mins by hot plate test (reference value: 3.42 +/- 0.03 sec); format: functional; conditions: 1 h
[22] = tested on: Peritoneal macrophage; experiment: Antiinflammatory activity in […] mouse Peritoneal macrophages assessed as inhibition of LPS-induced NO production at 10 uM preincubated for 1 hr followed by LPS stimulation measured after 24 hrs by Griess method relative to control (reference value: 0.0 %); format: functional; design: scale not given: the % may be the effect or the level left; conditions: time 25 hrs
[23] = Ulcerogenic activity in fasted albino mouse assessed as incidence of gastric ulceration at 10 mg/kg, po for 3 days (reference value: 0 %); format: toxicity, organism-based; conditions: in vivo, 72 h, time 3 day
[24] = tested on: Rattus norvegicus; experiment: Antiinflammatory activity in Wistar rat model of carrageenan-induced paw edema assessed as reduction in thickness of paw edema at 10 mg/kg, ip pretreated for 1 hr followed by carrageenan challenge and measured after 3 hrs (reference value: 1.79 +/-0.07 mm); format: functional; conditions: time 4 hrs
[25] = tested on: Mus musculus; experiment: Analgesic activity in albino mouse assessed as forepaw licking/jumping latency time at 10 mg/kg, ip measured after 120 mins by hot plate test (reference value: 2.62 +/- 0.06 sec); format: functional; conditions: 2 h
[26] = Ulcerogenic activity in fasted albino mouse assessed as average number of ulcers in gastric mucosa at 10 mg/kg, po for 3 days (reference value: 0); format: toxicity, organism-based; conditions: in vivo, 72 h, time 3 day
[27] = tested on: Pseudomonas aeruginosa; experiment: Antibacterial activity against Pseudomonas aeruginosa ATCC 27853 incubated for 18 hrs by agar dilution assay; format: functional
[28] = tested on: Rattus norvegicus; experiment: Anti-inflammatory activity in Wistar rat assessed as inhibition of carrageenan-induced paw edema at 10 mg/kg, ip pretreated for 1 hr followed by carrageenan challenge and measured after 4 hr relative to indomethacin; format: functional; conditions: time 5 hrs
[29] = tested on: Salmonella typhimurium; experiment: Antibacterial activity against Salmonella typhimurium ATCC 19430 incubated for 18 hrs by agar dilution assay; format: functional, Salmonella enterica subsp. enterica serovar Typhimurium; conditions: Salmonella enterica
[30] = tested on: Mus musculus; experiment: Analgesic activity in albino mouse assessed reduction in acetic acid-induced abdominal writhing by measuring writing reflex at 10 mg/kg, ip pretreated for 1 hr followed by acetic acid challenge and measured starting 5 mins post acetic acid challenge for 10 mins (reference value: 42.4 +/- 1.02); format: functional; conditions: time 75 min, 1.25 h
[31] = tested on: Mus musculus; experiment: Analgesic activity in albino mouse assessed as protection at 10 mg/kg, ip measured after 90 mins by hot plate test (reference value: 0 %); format: functional; conditions: 1.5 h
[32] = tested on: Rattus norvegicus; experiment: Antiinflammatory activity in Wistar rat model of carrageenan-induced paw edema assessed as reduction in thickness of paw edema at 10 mg/kg, ip pretreated for 1 hr followed by carrageenan challenge and measured after 1 hr (reference value: 2.41 +/-0.05 mm); format: functional; conditions: time 1 hr after carrageenan
[33] = tested on: Rattus norvegicus; experiment: Antiinflammatory activity in Wistar rat model of carrageenan-induced paw edema assessed as reduction in thickness of paw edema at 10 mg/kg, ip pretreated for 1 hr followed by carrageenan challenge and measured after 2 hrs (reference value: 2.06 +/-0.09 mm); format: functional; conditions: time 3 hrs
[34] = tested on: Mus musculus; experiment: Analgesic activity in albino mouse assessed protection against acetic acid-induced abdominal writhing at 10 mg/kg, ip pretreated for 1 hr followed by acetic acid challenge and measured starting 5 mins post acetic acid challenge for 10 mins relative to control (reference value: 0 %); format: functional; conditions: time 75 min, 1.25 h
[35] = tested on: A549; experiment: Antiproliferative activity against human A549 cells assessed as inhibition of cell growth after 72 hrs by MTT assay; format: functional, cell-based; conditions: A549, 72 h
[36] = tested on: Mus musculus; experiment: Analgesic activity in albino mouse assessed as protection at 10 mg/kg, ip measured after 60 mins by hot plate test (reference value: 0 %); format: functional; conditions: 1 h
[37] = tested on: Rattus norvegicus; experiment: Anti-inflammatory activity in Wistar rat assessed as inhibition of carrageenan-induced paw edema at 10 mg/kg, ip pretreated for 1 hr followed by carrageenan challenge and measured after 3 hr relative to control (reference value: 0.00 +/-0.1 %); format: functional; conditions: time 4 hrs
[38] = tested on: Mus musculus; experiment: Analgesic activity in albino mouse assessed as protection at 10 mg/kg, ip measured after 30 mins by hot plate test (reference value: 0 %); format: functional; conditions: 0.5 h
[39] = tested on: Splenocyte; experiment: Immunomodulatory activity in Swiss albino mouse splenocytes assessed as cell viability at 10 uM by measuring stimulation index incubated for 72 hrs in presence of mitogenic stimulus phytohaemagglutinin by MTT assay (reference value: 1.00 +/- 0.24); format: functional
[40] = tested on: Staphylococcus aureus; experiment: Antibacterial activity against Staphylococcus aureus ATCC 25923 incubated for 18 hrs by agar dilution method; format: functional

pIC50 [1]: 4.38
pIC50 [8]: 4.99
MIC [11]: 0.25 µg/mL and 0.355 µM
MIC [13]: 1 µg/mL and 1.42 µM
MIC [27]: 1 µg/mL and 1.42 µM
MIC [29]: 0.25 µg/mL and 0.355 µM
pIC50 [35]: 4.70
MIC [40]: 0.125 µg/mL and 0.178 µM
Structure (SMILES): COc1cc(/C=C/C(=O)/C=C(O)/C=C/c2ccc(OC(=O)[C@H](N)CCSC)c(OC)c2)ccc1OC(=O)[C@H](N)CCSC.Cl.Cl
UI [2]: 0
inhibition in vivo at 10 mg/kg [3]: 35%
Activity [4]: 13.77 µM
Activity [5]: 0.03 mm
Activity [6]: Non-Toxic
Activity [7]: 22.9%
Activity [9]: 0
inhibition in vivo at 10 mg/kg [10]: 59%
Activity [12]: 86.5%
Time [14]: 5.36 s
Activity [15]: 0.54 mm
inhibition in vivo at 10 mg/kg [16]: 98%
Time [17]: 3.36 s
Activity [18]: 54.5%
viability at 10 µM [19]: 120%
inhibition in vivo at 10 mg/kg [20]: 54%
Time [21]: 4.78 s
Activity [22]: 49.57%
Activity [23]: 0%
Activity [24]: 0.62 mm
Time [25]: 3.22 s
Activity [26]: 0
inhibition in vivo at 10 mg/kg [28]: 113%
Activity [30]: 19.8
Activity [31]: 23.5%
Activity [32]: 0.99 mm
Activity [33]: 0.95 mm
Activity [34]: 53.3%
Activity [36]: 39.8%
inhibition in vivo at 10 mg/kg [37]: 65%
Activity [38]: 6.8%
Activity_index [39]: 1.01
